In brackets after ≈: the same amount, converted by molar mass.
Tested on: infectious agents (strains tested)
Assay: organism not typed
Assay type: cell-based

SMILES: C[C@@H]1[C@H](O)[C@@H](C)/C=C/C=C/C=C/C=C/C=C/C=C/C=C/[C@H](O[C@@H]2O[C@H](C)[C@@H](O)[C@H](N)[C@@H]2O)C[C@@H]2O[C@](O)(C[C@@H](O)C[C@@H](O)[C@H](O)CC[C@@H](O)C[C@@H](O)CC(=O)O[C@H]1C)C[C@H](O)[C@H]2C(=O)O [Amphotericin]
- MIC (Absidia spp, read-out: Geometric Mean MIC): 0.545 µg/mL (≈ 0.59 µM)
- MIC (Absidia spp, read-out: MIC[90]): 0.25 to 2 µg/mL (≈ 0.271 to 2.16 µM)
- MIC (Alternaria spp, read-out: Geometric Mean MIC): 0.852 µg/mL (≈ 0.922 µM)
- MIC (Alternaria spp, read-out: MIC[90]): 4 µg/mL (≈ 4.33 µM)
- MIC (Apophysomyces spp, read-out: Geometric Mean MIC): 0.5 µg/mL (≈ 0.541 µM)
- MIC (Apophysomyces spp, read-out: MIC[90]): 0.031 to 4 µg/mL (≈ 0.0335 to 4.33 µM)
- MIC (Aspergillus flavus, read-out: Geometric Mean MIC): 0.91 µg/mL (≈ 0.985 µM)
- MIC (Aspergillus flavus, read-out: MIC[90]): 2 µg/mL (≈ 2.16 µM)
- MIC (Aspergillus fumigatus, read-out: Geometric Mean MIC): 0.683 µg/mL (≈ 0.739 µM)
- MIC (Aspergillus fumigatus, read-out: MIC[90]): 1 µg/mL (≈ 1.08 µM)
- MIC (Aspergillus nidulans, read-out: Geometric Mean MIC): 0.758 µg/mL (≈ 0.82 µM)
- MIC (Aspergillus nidulans, read-out: MIC[90]): 2 µg/mL (≈ 2.16 µM)
- MIC (Aspergillus niger, read-out: Geometric Mean MIC): 0.36 µg/mL (≈ 0.39 µM)
- MIC (Aspergillus niger, read-out: MIC[90]): 1 µg/mL (≈ 1.08 µM)
- MIC (Aspergillus sydowii, read-out: Geometric Mean MIC): 1.26 µg/mL (≈ 1.36 µM)
- MIC (Aspergillus sydowii, read-out: MIC[90]): 1 to 2 µg/mL (≈ 1.08 to 2.16 µM)
- MIC (Aspergillus terreus, read-out: Geometric Mean MIC): 1.76 µg/mL (≈ 1.9 µM)
- MIC (Aspergillus terreus, read-out: MIC[90]): 4 µg/mL (≈ 4.33 µM)
- MIC (Aspergillus ustus, read-out: Geometric Mean MIC): 0.673 µg/mL (≈ 0.728 µM)
- MIC (Aspergillus ustus, read-out: MIC[90]): 0.25 to 1 µg/mL (≈ 0.271 to 1.08 µM)
- MIC (Bipolaris spp, read-out: Geometric Mean MIC): 0.25 µg/mL (≈ 0.271 µM)
- MIC (Bipolaris spp, read-out: MIC[90]): 0.25 µg/mL (≈ 0.271 µM)
- MIC (Bjerkandera adusta, read-out: Geometric Mean MIC): 0.215 µg/mL (≈ 0.233 µM)
- MIC (Bjerkandera adusta, read-out: MIC[90]): 0.25 µg/mL (≈ 0.271 µM)
- MIC (Blastomyces dermatitidis, read-out: Geometric Mean MIC): 0.153 µg/mL (≈ 0.166 µM)
- MIC (Blastomyces dermatitidis, read-out: MIC[90]): 0.5 µg/mL (≈ 0.541 µM)
- MIC (Candida albicans, read-out: Geometric Mean MIC): 0.686 µg/mL (≈ 0.742 µM)
- MIC (Candida albicans, read-out: MIC[90]): 1 µg/mL (≈ 1.08 µM)
- MIC (Candida dubliniensis, read-out: Geometric Mean MIC): 0.513 µg/mL (≈ 0.555 µM)
- MIC (Candida dubliniensis, read-out: MIC[90]): 1 µg/mL (≈ 1.08 µM)
- MIC (Candida tropicalis, read-out: Geometric Mean MIC): 0.774 µg/mL (≈ 0.838 µM)
- MIC (Candida tropicalis, read-out: MIC[90]): 1 µg/mL (≈ 1.08 µM)
- MIC (Clavispora lusitaniae, Candida lusitaniae, read-out: Geometric Mean MIC): 0.506 µg/mL (≈ 0.548 µM)
- MIC (Clavispora lusitaniae, Candida lusitaniae, read-out: MIC[90]): 1 µg/mL (≈ 1.08 µM)
- MIC (Coccidioides immitis, read-out: Geometric Mean MIC, Coccidioides immitis): 0.39 µg/mL (≈ 0.422 µM)
- MIC (Coccidioides immitis, read-out: MIC[90], Coccidioides immitis): 0.5 µg/mL (≈ 0.541 µM)
- MIC (Cryptococcus neoformans, read-out: Geometric Mean MIC): 0.667 µg/mL (≈ 0.722 µM)
- MIC (Cryptococcus neoformans, read-out: MIC[90]): 1 µg/mL (≈ 1.08 µM)
- MIC (Curvularia spp, read-out: Geometric Mean MIC): 0.5 µg/mL (≈ 0.541 µM)
- MIC (Curvularia spp, read-out: MIC[90]): 0.5 µg/mL (≈ 0.541 µM)
- MIC (Debaryomyces hansenii, Candida famata, read-out: Geometric Mean MIC): 0.841 µg/mL (≈ 0.91 µM)
- MIC (Debaryomyces hansenii, Candida famata, read-out: MIC[90]): 2 µg/mL (≈ 2.16 µM)
- MIC (Diutina rugosa, Candida rugosa, read-out: Geometric Mean MIC): 0.665 µg/mL (≈ 0.72 µM)
- MIC (Diutina rugosa, Candida rugosa, read-out: MIC[90]): 1 µg/mL (≈ 1.08 µM)
- MIC (Dujonia zeylanoides, Candida zeylanoides, read-out: Geometric Mean MIC): 1 µg/mL (≈ 1.08 µM)
- MIC (Dujonia zeylanoides, Candida zeylanoides, read-out: MIC[90]): 1 µg/mL (≈ 1.08 µM)
- MIC (Exophiala dermatidis, read-out: Geometric Mean MIC): 0.5 µg/mL (≈ 0.541 µM)
- MIC (Exophiala dermatidis, read-out: MIC[90]): 0.5 µg/mL (≈ 0.541 µM)
- MIC (Exophiala dermatitidis, Wangiella dermatitidis, read-out: Geometric Mean MIC): 0.63 µg/mL (≈ 0.682 µM)
- MIC (Exophiala dermatitidis, Wangiella dermatitidis, read-out: MIC[90]): 0.25 to 1 µg/mL (≈ 0.271 to 1.08 µM)
- MIC (Exophiala jeanselmei, read-out: Geometric Mean MIC): 0.66 µg/mL (≈ 0.714 µM)
- MIC (Exophiala jeanselmei, read-out: MIC[90]): 1 µg/mL (≈ 1.08 µM)
- MIC (Exophiala moniliae, read-out: Geometric Mean MIC): 0.177 µg/mL (≈ 0.192 µM)
- MIC (Exophiala moniliae, read-out: MIC[90]): 0.125 to 0.25 µg/mL (≈ 0.135 to 0.271 µM)
- MIC (Fonsecae pedrosoi, read-out: Geometric Mean MIC): 1 µg/mL (≈ 1.08 µM)
- MIC (Fonsecae pedrosoi, read-out: MIC[90]): 1 µg/mL (≈ 1.08 µM)
- MIC (Fusarium spp, read-out: Geometric Mean MIC): 1.2 µg/mL (≈ 1.3 µM)
- MIC (Fusarium spp, read-out: MIC[90]): 2 µg/mL (≈ 2.16 µM)
- MIC (Hansenula anomala, Pichia anomala, read-out: Geometric Mean MIC): 0.707 µg/mL (≈ 0.765 µM)
- MIC (Hansenula anomala, Pichia anomala, read-out: MIC[90]): 1 µg/mL (≈ 1.08 µM)
- MIC (Histoplasma capsulatum, read-out: Geometric Mean MIC, Histoplasma capsulatum): 0.25 µg/mL (≈ 0.271 µM)
- MIC (Histoplasma capsulatum, read-out: MIC[90], Histoplasma capsulatum): 0.5 µg/mL (≈ 0.541 µM)
- MIC (Kluyveromyces marxianus, Candida kefyr, read-out: Geometric Mean MIC): 0.779 µg/mL (≈ 0.843 µM)
- MIC (Kluyveromyces marxianus, Candida kefyr, read-out: MIC[90]): 1 µg/mL (≈ 1.08 µM)
- MIC (Kluyveromyces marxianus, read-out: Geometric Mean MIC): 1 µg/mL (≈ 1.08 µM)
- MIC (Kluyveromyces marxianus, read-out: MIC[90]): 1 µg/mL (≈ 1.08 µM)
- MIC (Lodderomyces parapsilosis, Candida parapsilosis, read-out: Geometric Mean MIC): 0.761 µg/mL (≈ 0.824 µM)
- MIC (Lodderomyces parapsilosis, Candida parapsilosis, read-out: MIC[90]): 1 µg/mL (≈ 1.08 µM)
- MIC (Meyerozyma guilliermondii, Candida guilliermondii, read-out: Geometric Mean MIC): 0.553 µg/mL (≈ 0.598 µM)
- MIC (Meyerozyma guilliermondii, Candida guilliermondii, read-out: MIC[90]): 1 µg/mL (≈ 1.08 µM)
- MIC (Mucor spp, read-out: Geometric Mean MIC): 0.274 µg/mL (≈ 0.297 µM)
- MIC (Mucor spp, read-out: MIC[90]): 1 µg/mL (≈ 1.08 µM)
- MIC (Nakaseomyces glabratus, Candida glabrata, read-out: Geometric Mean MIC): 0.798 µg/mL (≈ 0.864 µM)
- MIC (Nakaseomyces glabratus, Candida glabrata, read-out: MIC[90]): 1 µg/mL (≈ 1.08 µM)
- MIC (Paecilomyces spp, read-out: Geometric Mean MIC): 1.1 µg/mL (≈ 1.19 µM)
- MIC (Paecilomyces spp, read-out: MIC[90]): 16 µg/mL (≈ 17.3 µM)
- MIC (Papiliotrema laurentii, Cryptococcus laurentii, read-out: Geometric Mean MIC): 0.794 µg/mL (≈ 0.859 µM)
- MIC (Papiliotrema laurentii, Cryptococcus laurentii, read-out: MIC[90]): 0.5 to 1 µg/mL (≈ 0.541 to 1.08 µM)
- MIC (Paracoccidioides brasiliensis, read-out: Geometric Mean MIC, Paracoccidioides brasiliensis): 0.096 µg/mL (≈ 0.104 µM)
- MIC (Paracoccidioides brasiliensis, read-out: MIC[90], Paracoccidioides brasiliensis): 0.25 µg/mL (≈ 0.271 µM)
- MIC (Penicillium spp, read-out: Geometric Mean MIC): 1.02 µg/mL (≈ 1.11 µM)
- MIC (Penicillium spp, read-out: MIC[90]): 4 µg/mL (≈ 4.33 µM)
- MIC (Pichia etchel, read-out: Geometric Mean MIC): 0.063 µg/mL (≈ 0.0682 µM)
- MIC (Pichia etchel, read-out: MIC[90]): 0.063 µg/mL (≈ 0.0682 µM)
- MIC (Pichia kudriavzevii, Candida krusei, read-out: Geometric Mean MIC): 0.976 µg/mL (≈ 1.06 µM)
- MIC (Pichia kudriavzevii, Candida krusei, read-out: MIC[90]): 2 µg/mL (≈ 2.16 µM)
- MIC (Pleurothecium obovoideum, Ramichloridium obovoideum, read-out: Geometric Mean MIC): 1 µg/mL (≈ 1.08 µM)
- MIC (Pleurothecium obovoideum, Ramichloridium obovoideum, read-out: MIC[90]): 1 µg/mL (≈ 1.08 µM)
- MIC (Rhizomucor spp, read-out: Geometric Mean MIC): 0.063 µg/mL (≈ 0.0682 µM)
- MIC (Rhizomucor spp, read-out: MIC[90]): 0.063 µg/mL (≈ 0.0682 µM)
- MIC (Rhizopus spp, read-out: Geometric Mean MIC): 0.635 µg/mL (≈ 0.687 µM)
- MIC (Rhizopus spp, read-out: MIC[90]): 2 µg/mL (≈ 2.16 µM)
- MIC (Saccharomyces cerevisiae, read-out: Geometric Mean MIC): 0.775 µg/mL (≈ 0.839 µM)
- MIC (Saccharomyces cerevisiae, read-out: MIC[90]): 1 µg/mL (≈ 1.08 µM)
- MIC (Scedosporium apiospermum, read-out: Geometric Mean MIC): 2.27 µg/mL (≈ 2.46 µM)
- MIC (Scedosporium apiospermum, read-out: MIC[90]): 8 µg/mL (≈ 8.66 µM)
- MIC (Scedosporium boydii, Pseudallescheria boydii, read-out: Geometric Mean MIC): 1.72 µg/mL (≈ 1.86 µM)
- MIC (Scedosporium boydii, Pseudallescheria boydii, read-out: MIC[90]): 4 µg/mL (≈ 4.33 µM)
- MIC (Sporothrix schenckii, read-out: Geometric Mean MIC): 0.574 µg/mL (≈ 0.621 µM)
- MIC (Sporothrix schenckii, read-out: MIC[90]): 1 µg/mL (≈ 1.08 µM)
- MIC (Trichophyton mentagrophytes, read-out: Geometric Mean MIC): 1 µg/mL (≈ 1.08 µM)
- MIC (Trichophyton mentagrophytes, read-out: MIC[90]): 1 µg/mL (≈ 1.08 µM)
- MIC (Trichophyton tonsurans, read-out: Geometric Mean MIC): 1.26 µg/mL (≈ 1.36 µM)
- MIC (Trichophyton tonsurans, read-out: MIC[90]): 0.5 to 8 µg/mL (≈ 0.541 to 8.66 µM)
- MIC (Trichosporon spp, read-out: Geometric Mean MIC): 1.32 µg/mL (≈ 1.43 µM)
- MIC (Trichosporon spp, read-out: MIC[90]): 1 to 2 µg/mL (≈ 1.08 to 2.16 µM)
- MIC (Yarrowia lipolytica, read-out: Geometric Mean MIC): 0.5 µg/mL (≈ 0.541 µM)
- MIC (Yarrowia lipolytica, read-out: MIC[90]): 0.5 µg/mL (≈ 0.541 µM)

From patent US20090226527A1, “Particulate-stabilized injectable pharmacutical compositions of posaconazole” (priority 2004, published 2009)
